Test results published in PMC5908784, “Extracellular loops 2 and 3 of the calcitonin receptor selectively modify agonist binding and efficacy” (Biochemical Pharmacology, 2018).
Positions count from the first letter of the chain named. Read-outs that look alike come from different tables or passages of the source. Where a SMILES comes first, the peptide text is derived from it. Bridges are numbered along the chain shown (N, C = ends).

Key:
Experiment in all cases: ERK1/2 phosphorylation
Format in all cases: cell-based
[1] = biological target: T1, hCTR E294A (Homo sapiens, UniProt P30988, E294A); settings: for Emax: read-out: Emax (% WT); for EC50: pERK, three-parameter logistic fit
T1 construct: c-Myc (N); expressed in transfected cells
T1 sequence (P30988 25-474 E294A): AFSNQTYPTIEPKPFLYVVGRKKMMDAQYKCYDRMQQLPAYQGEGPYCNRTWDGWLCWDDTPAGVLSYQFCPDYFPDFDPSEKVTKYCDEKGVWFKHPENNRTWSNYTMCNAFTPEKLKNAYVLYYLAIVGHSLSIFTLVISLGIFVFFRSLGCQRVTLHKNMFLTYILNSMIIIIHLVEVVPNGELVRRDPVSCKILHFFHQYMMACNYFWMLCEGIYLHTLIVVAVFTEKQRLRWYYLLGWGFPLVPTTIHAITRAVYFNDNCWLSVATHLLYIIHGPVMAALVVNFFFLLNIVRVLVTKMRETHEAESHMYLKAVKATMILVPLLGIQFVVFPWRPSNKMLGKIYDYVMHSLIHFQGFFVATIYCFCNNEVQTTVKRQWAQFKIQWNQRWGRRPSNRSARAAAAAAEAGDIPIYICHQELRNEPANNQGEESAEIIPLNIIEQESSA
Outline: (§1)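 Overnight-plated cells at 2.5 × 10^4/well are stimulated, and ERK1/2 phosphorylation is referenced to the 10% FBS response at 6 min before logistic curve fitting.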

[2] = biological target: T2, hCTR S364A (Homo sapiens, UniProt P30988, S364A); settings: CV1-FlpIn cells, mean ± S.E.M.; for Emax: pERK maximal response; for EC50: pERK, three-parameter logistic fit
T2 construct: c-Myc (N); expressed in transfected cells
T2 sequence (P30988 25-474 S364A): T1 sequence (P30988 25-474 E294A) with A270E, S340A
Outline: as §1

[3] = biological target: T3, hCTR M376A (Homo sapiens, UniProt P30988, M376A); settings: CV1-FlpIn cells, mean ± S.E.M.; for Emax: pERK maximal response; for EC50: pERK, three-parameter logistic fit
T3 construct: c-Myc (N); expressed in transfected cells
T3 sequence (P30988 25-474 M376A): T1 sequence (P30988 25-474 E294A) with A270E, M352A
Outline: as §1

[4] = biological target: T4, hCTR N286A (Homo sapiens, UniProt P30988, N286A); settings: CV1-FlpIn cells, mean ± S.E.M.; for Emax: pERK maximal response; for EC50: pERK, three-parameter logistic fit
T4 construct: c-Myc (N); expressed in transfected cells
T4 sequence (P30988 25-474 N286A): T1 sequence (P30988 25-474 E294A) with N262A, A270E
Outline: as §1

[5] = biological target: T5, hCTR V375A (Homo sapiens, UniProt P30988, V375A); settings: CV1-FlpIn cells, mean ± S.E.M.; for Emax: pERK maximal response; for EC50: pERK, three-parameter logistic fit
T5 construct: c-Myc (N); expressed in transfected cells
T5 sequence (P30988 25-474 V375A): T1 sequence (P30988 25-474 E294A) with A270E, V351A
Outline: as §1

[6] = pERK maximal response, hCTR E294A, CV1-FlpIn cells, mean ± S.E.M.
[7] = hCTR E294A, CV1-FlpIn cells, mean ± S.E.M.

Emax [1, 6] [%] | EC50 [1, 7] [nM] | EC50 [2] [nM] | EC50 [3] [nM] | EC50 [4] [nM] | EC50 [5] [nM] | Compound | Emax [2] [%] | Emax [3] [%] | Emax [4] [%] | Emax [5] [%] | Emax [1] [%]
66 ± 15 | 123 | 10.7 | 18.2 | 12.9 | 110 | CC(C)C[C@H](NC(=O)CNC(=O)[C@H](C)NC(=O)[C@H](CC(C)C)NC(=O)[C@H](CCCNC(=N)N)NC(=O)[C@H](Cc1cnc[nH]1)NC(=O)[C@@H](NC(=O)[C@@H](NC(=O)[C@@H]1CSSC[C@H](NC(=O)[C@H](C)N)C(=O)N[C@@H](CC(=O)O)C(=O)N[C@@H]([C@@H](C)O)C(=O)N[C@@H](C)C(=O)N[C@@H]([C@@H](C)O)C(=O)N1)C(C)C)[C@@H](C)O)C(=O)N[C@@H](CC(C)C)C(=O)N[C@@H](CO)C(=O)N[C@@H](CCCNC(=N)N)C(=O)N[C@@H](CO)C(=O)NCC(=O)NCC(=O)N[C@H](C(=O)N[C@H](C(=O)N[C@@H](CCCCN)C(=O)N[C@@H](CC(N)=O)C(=O)N[C@@H](CC(N)=O)C(=O)N[C@@H](Cc1ccccc1)C(=O)N[C@H](C(=O)N1CCC[C@H]1C(=O)N[C@H](C(=O)N[C@@H](CC(N)=O)C(=O)N[C@H](C(=O)NCC(=O)N[C@@H](CO)C(=O)N[C@@H](CCCCN)C(=O)N[C@@H](C)C(=O)N[C@@H](Cc1ccccc1)C(N)=O)C(C)C)[C@@H](C)O)C(C)C)C(C)C)C(C)C [hαCGRP] | 54 ± 6 | 36 ± 8 | 31 ± 5 | 58 ± 7 | 
115 ± 9 | 2 | 3.63 | 1.95 | 1.2 | 2.63 | CSCC[C@H](NC(=O)CNC(=O)[C@H](CO)NC(=O)[C@H](Cc1ccccc1)NC(=O)[C@H](CCCNC(=N)N)NC(=O)[C@H](Cc1c[nH]cn1)NC(=O)[C@H](Cc1ccccc1)NC(=O)[C@H](CC(N)=O)NC(=O)[C@H](CC(N)=O)NC(=O)[C@H](CC(C)C)NC(=O)[C@H](CC(N)=O)NC(=O)[C@H](CCCNC(=N)N)NC(=O)[C@H](Cc1c[nH]c2ccccc12)NC(=O)[C@H](Cc1ccc(O)cc1)NC(=O)[C@H](C)NC(=O)[C@H](CO)NC(=O)[C@H](CC(C)C)NC(=O)[C@@H](NC(=O)[C@@H]1CSSC[C@H](N)C(=O)N[C@@H](CO)C(=O)N[C@@H](CC(N)=O)C(=O)N[C@@H](CC(C)C)C(=O)N[C@@H](CO)C(=O)N[C@@H]([C@@H](C)O)C(=O)N1)C(C)C)C(=O)NCC(=O)N[C@@H](Cc1ccccc1)C(=O)NCC(=O)N1CCC[C@H]1C(=O)N[C@@H](CCC(=O)O)C(=O)N[C@H](C(=O)N1CCC[C@H]1C(N)=O)[C@@H](C)O [pCT] (H-CSNLSTCVLSAYWRNLNNFHRFSGMGFGPETP-NH2; disulfide 1-7) | 127 ± 12 | 47 ± 4 | 46 ± 5 | 89 ± 4 | 
 |  |  |  |  |  | CC(C)C[C@H](NC(=O)[C@H](CCCCN)NC(=O)CNC(=O)[C@H](CC(C)C)NC(=O)[C@@H](NC(=O)[C@@H]1CSSC[C@H](N)C(=O)N[C@@H](CO)C(=O)N[C@@H](CC(N)=O)C(=O)N[C@@H](CC(C)C)C(=O)N[C@@H](CO)C(=O)N[C@@H]([C@@H](C)O)C(=O)N1)C(C)C)C(=O)N[C@@H](CO)C(=O)N[C@@H](CCC(N)=O)C(=O)N[C@@H](CCC(=O)O)C(=O)N[C@@H](CC(C)C)C(=O)N[C@@H](Cc1c[nH]cn1)C(=O)N[C@@H](CCCCN)C(=O)N[C@@H](CC(C)C)C(=O)N[C@@H](CCC(N)=O)C(=O)N[C@H](C(=O)N[C@@H](Cc1ccc(O)cc1)C(=O)N1CCC[C@H]1C(=O)N[C@@H](CCCNC(=N)N)C(=O)N[C@H](C(=O)N[C@@H](CC(N)=O)C(=O)N[C@H](C(=O)NCC(=O)N[C@@H](CO)C(=O)NCC(=O)N[C@H](C(=O)N1CCC[C@H]1C(N)=O)[C@@H](C)O)[C@@H](C)O)[C@@H](C)O)[C@@H](C)O [sCT] | 106 ± 4 | 72 ± 5 | 59 ± 5 | 70 ± 3 | 126 ± 7
 |  |  |  |  |  | CC[C@H](C)[C@H](NC(=O)[C@H](C)NC(=O)[C@@H](NC(=O)[C@H](CCC(N)=O)NC(=O)[C@@H]1CCCN1C(=O)[C@H](Cc1ccccc1)NC(=O)[C@@H](NC(=O)[C@H](Cc1c[nH]cn1)NC(=O)[C@H](Cc1ccccc1)NC(=O)[C@H](CCCCN)NC(=O)[C@H](CC(N)=O)NC(=O)[C@H](Cc1ccccc1)NC(=O)[C@H](CC(=O)O)NC(=O)[C@H](CCC(N)=O)NC(=O)[C@@H](NC(=O)[C@H](Cc1ccc(O)cc1)NC(=O)[C@@H](NC(=O)CNC(=O)[C@H](CC(C)C)NC(=O)[C@H](CCSC)NC(=O)[C@@H]1CSSC[C@H](N)C(=O)NCC(=O)N[C@@H](CC(N)=O)C(=O)N[C@@H](CC(C)C)C(=O)N[C@@H](CO)C(=O)N[C@@H]([C@@H](C)O)C(=O)N1)[C@@H](C)O)[C@@H](C)O)[C@@H](C)O)[C@@H](C)O)C(=O)NCC(=O)N[C@H](C(=O)NCC(=O)N[C@@H](C)C(=O)N1CCC[C@H]1C(N)=O)C(C)C [hCT] | 135 ± 10 | 52 ± 4 | 52 ± 5 | 67 ± 3 | 125 ± 10
 |  |  |  |  |  | CC(C)C[C@H](NC(=O)[C@H](CC(N)=O)NC(=O)[C@H](CC(N)=O)NC(=O)[C@H](CO)NC(=O)[C@H](CO)NC(=O)[C@H](CCCNC(=N)N)NC(=O)[C@@H](NC(=O)[C@H](CC(C)C)NC(=O)[C@H](Cc1ccccc1)NC(=O)[C@H](CC(N)=O)NC(=O)[C@H](C)NC(=O)[C@H](CC(C)C)NC(=O)[C@H](CCCNC(=N)N)NC(=O)[C@H](CCC(N)=O)NC(=O)[C@@H](NC(=O)[C@H](C)NC(=O)[C@@H]1CSSC[C@H](NC(=O)[C@@H](N)CCCCN)C(=O)N[C@@H](CC(N)=O)C(=O)N[C@@H]([C@@H](C)O)C(=O)N[C@@H](C)C(=O)N[C@@H]([C@@H](C)O)C(=O)N1)[C@@H](C)O)C(C)C)C(=O)NCC(=O)N1CCC[C@H]1C(=O)N[C@H](C(=O)N[C@@H](CC(C)C)C(=O)N1CCC[C@H]1C(=O)N1CCC[C@H]1C(=O)N[C@H](C(=O)N[C@@H](CC(N)=O)C(=O)N[C@H](C(=O)NCC(=O)N[C@@H](CO)C(=O)N[C@@H](CC(N)=O)C(=O)N[C@H](C(=O)N[C@@H](Cc1ccc(O)cc1)C(N)=O)[C@@H](C)O)C(C)C)[C@@H](C)O)C(C)C [rAmy] | 66 ± 9 | 43 ± 7 | 41 ± 6 | 77 ± 13 | 72 ± 7
